Assay results: ChEMBL document CHEMBL5550190 (J Med Chem, 2024)

Tests used:
[1] = tested on: HCT-116; experiment: Antitumor activity against human HCT-116 cells incubated for 48 hrs; format: functional
[2] = tested on: Hs-578T; experiment: Antitumor activity against human Hs-578T cells incubated for 48 hrs; format: functional
[3] = tested on: A549; experiment: Antitumor activity against human A549 cells incubated for 48 hrs; format: functional
[4] = tested on: MDA-MB-231; experiment: Antitumor activity against human MDA-MB-231 cells incubated for 48 hrs in presence of 1.5% BSA by Celltiter Blue reagent based 3D microtiter assay; format: functional
[5] = tested on: MDA-MB-231; experiment: Antitumor activity against human MDA-MB-231 cells incubated for 48 hrs in presence of 1.5% BSA by Celltiter Blue reagent based 2D microtiter assay; format: functional
[6] = tested on: MDA-MB-231; experiment: Antitumor activity against human MDA-MB-231 cells incubated for 48 hrs by Celltiter Blue reagent based 2D microtiter assay; format: functional
[7] = tested on: MDA-MB-231; experiment: Antitumor activity against human MDA-MB-231 cells incubated for 48 hrs by Celltiter Blue reagent based 3D microtiter assay; format: functional
[8] = Protein binding in mouse plasma at 5 uM incubated for 5 hrs by LC-MS/MS analysis; format: ADME, cell-free; settings: read-out: PPB
[9] = target: CYP2C9 (Homo sapiens, UniProt P11712); experiment: Drug metabolism in human liver microsomes assessed as CYP2C9-mediated metabolism by measuring increase in half life in presence of sulfaphenazole (reference value: 10.8 mins); format: ADME, Microsome; settings: with sulfaphenazole
[10] = Metabolic stability in mouse liver microsomes assessed as half life at 100 uM preincubated for 5 mins followed by NADPH addition and measured upto 60 mins by LC-MS/MS analysis; format: ADME, Microsome; settings: time < 65 min
[11] = Metabolic stability in mouse liver microsomes assessed as half life at 100 uM measured upto 60 mins by LC-MS/MS analysis; format: ADME, Microsome; settings: 1 h
[12] = Drug metabolism in mouse liver microsomes assessed as M2 metabolite formation at 10 uM after 30 mins in presence of NADPH by LC-MS/MS analysis; format: ADME, Microsome; settings: 0.5 h
[13] = target: CYP2D6 (Homo sapiens, UniProt P10635); experiment: Drug metabolism in human liver microsomes assessed as CYP2D6-mediated metabolism by measuring increase in half life in presence of quinidine (reference value: 10.8 mins); format: ADME, Microsome; settings: with quinidine
[14] = target: T1, CYP1A2 (Homo sapiens, UniProt P05177); experiment: Drug metabolism in human liver microsomes assessed as CYP1A2-mediated metabolism by measuring increase in half life in presence of furafylline (reference value: 10.8 mins); format: ADME, Microsome; settings: with furafylline
T1 sequence (P05177 whole entry): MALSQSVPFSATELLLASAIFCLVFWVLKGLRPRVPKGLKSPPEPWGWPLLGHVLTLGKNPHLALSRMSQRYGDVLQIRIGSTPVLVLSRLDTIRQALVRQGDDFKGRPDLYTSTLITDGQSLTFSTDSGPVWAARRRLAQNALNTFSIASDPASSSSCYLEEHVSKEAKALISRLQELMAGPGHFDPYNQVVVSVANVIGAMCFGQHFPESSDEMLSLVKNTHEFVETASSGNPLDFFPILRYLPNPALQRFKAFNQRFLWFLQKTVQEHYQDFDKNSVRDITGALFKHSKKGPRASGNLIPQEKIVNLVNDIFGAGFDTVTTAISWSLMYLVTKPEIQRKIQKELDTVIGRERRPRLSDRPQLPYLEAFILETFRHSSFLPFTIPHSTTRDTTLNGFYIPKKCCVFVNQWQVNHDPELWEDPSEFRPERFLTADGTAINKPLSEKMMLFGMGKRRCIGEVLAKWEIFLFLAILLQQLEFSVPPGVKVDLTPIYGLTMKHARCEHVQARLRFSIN

[15] = Drug metabolism in mouse liver microsomes assessed as M3 metabolite formation at 10 uM after 30 mins in presence of NADPH by LC-MS/MS analysis; format: ADME, Microsome; settings: 0.5 h
[16] = target: CYP2C19 (Homo sapiens, UniProt P33261); experiment: Drug metabolism in human liver microsomes assessed as CYP2C19-mediated metabolism by measuring increase in half life in presence of (+)-N-3-benzylnirvanol (reference value: 10.8 mins); format: ADME, Microsome; settings: with (+)-N-3-benzylnirvanol
[17] = Metabolic stability in human liver microsomes assessed as half life at 100 uM preincubated for 5 mins followed by NADPH addition and measured upto 60 mins by LC-MS/MS analysis; format: ADME, Microsome; settings: time < 65 min
[18] = target: CYP3A4 (Homo sapiens, UniProt P08684); experiment: Drug metabolism in human liver microsomes assessed as CYP3A4-mediated metabolism by measuring increase in half life in presence of ketoconazole (reference value: 10.8 mins); format: ADME, Microsome; settings: with ketoconazole
[19] = Protein binding in human plasma at 5 uM incubated for 5 hrs by LC-MS/MS analysis; format: ADME, cell-free; settings: read-out: PPB
[20] = Drug metabolism in mouse liver microsomes assessed as M1 metabolite formation at 10 uM after 30 mins in presence of NADPH by LC-MS/MS analysis; format: ADME, Microsome; settings: 0.5 h
[21] = Metabolic stability in human liver microsomes assessed as half life at 100 uM measured upto 60 mins by LC-MS/MS analysis; format: ADME, Microsome; settings: 1 h

Sequence of CYP2C9 (P11712 whole entry): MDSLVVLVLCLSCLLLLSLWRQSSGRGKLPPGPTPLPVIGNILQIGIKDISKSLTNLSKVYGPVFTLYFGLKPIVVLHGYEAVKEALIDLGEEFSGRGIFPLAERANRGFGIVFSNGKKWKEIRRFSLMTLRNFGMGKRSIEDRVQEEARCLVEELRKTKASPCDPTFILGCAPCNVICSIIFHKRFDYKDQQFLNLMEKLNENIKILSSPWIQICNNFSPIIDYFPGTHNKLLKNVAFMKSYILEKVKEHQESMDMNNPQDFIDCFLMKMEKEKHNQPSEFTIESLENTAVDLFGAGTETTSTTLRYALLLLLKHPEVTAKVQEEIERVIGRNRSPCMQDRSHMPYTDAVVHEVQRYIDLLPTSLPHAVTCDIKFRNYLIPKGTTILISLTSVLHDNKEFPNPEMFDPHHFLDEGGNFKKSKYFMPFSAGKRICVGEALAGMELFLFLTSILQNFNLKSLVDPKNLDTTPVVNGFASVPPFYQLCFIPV
Sequence of CYP2D6 (P10635 whole entry): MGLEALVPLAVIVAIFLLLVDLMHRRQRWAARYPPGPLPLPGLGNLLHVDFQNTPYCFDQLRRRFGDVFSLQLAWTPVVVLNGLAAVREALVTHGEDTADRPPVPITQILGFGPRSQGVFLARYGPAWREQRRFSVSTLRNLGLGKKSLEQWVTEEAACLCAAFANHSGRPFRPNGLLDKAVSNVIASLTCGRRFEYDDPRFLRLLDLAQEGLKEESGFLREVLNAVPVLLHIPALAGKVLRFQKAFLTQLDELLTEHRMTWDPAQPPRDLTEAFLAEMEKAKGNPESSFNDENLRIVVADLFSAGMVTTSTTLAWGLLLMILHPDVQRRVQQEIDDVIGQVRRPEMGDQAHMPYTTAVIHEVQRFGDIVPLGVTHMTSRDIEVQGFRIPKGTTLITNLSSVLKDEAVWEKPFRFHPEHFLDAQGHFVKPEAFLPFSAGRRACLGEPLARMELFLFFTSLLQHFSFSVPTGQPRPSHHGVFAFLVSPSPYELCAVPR
Sequence of CYP2C19 (P33261 whole entry): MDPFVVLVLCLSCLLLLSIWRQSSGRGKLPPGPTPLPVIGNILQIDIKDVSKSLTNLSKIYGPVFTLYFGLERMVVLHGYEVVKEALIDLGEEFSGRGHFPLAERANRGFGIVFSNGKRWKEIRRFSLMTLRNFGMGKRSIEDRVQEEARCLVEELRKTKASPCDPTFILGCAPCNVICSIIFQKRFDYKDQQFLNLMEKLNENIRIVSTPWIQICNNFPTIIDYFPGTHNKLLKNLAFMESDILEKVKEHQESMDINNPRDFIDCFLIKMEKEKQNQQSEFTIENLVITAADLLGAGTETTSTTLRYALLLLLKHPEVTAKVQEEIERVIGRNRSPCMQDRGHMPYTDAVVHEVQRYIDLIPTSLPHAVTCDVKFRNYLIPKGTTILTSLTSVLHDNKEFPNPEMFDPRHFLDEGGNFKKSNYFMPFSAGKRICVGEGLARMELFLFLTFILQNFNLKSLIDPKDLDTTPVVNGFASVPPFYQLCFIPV
Sequence of CYP3A4 (P08684 whole entry): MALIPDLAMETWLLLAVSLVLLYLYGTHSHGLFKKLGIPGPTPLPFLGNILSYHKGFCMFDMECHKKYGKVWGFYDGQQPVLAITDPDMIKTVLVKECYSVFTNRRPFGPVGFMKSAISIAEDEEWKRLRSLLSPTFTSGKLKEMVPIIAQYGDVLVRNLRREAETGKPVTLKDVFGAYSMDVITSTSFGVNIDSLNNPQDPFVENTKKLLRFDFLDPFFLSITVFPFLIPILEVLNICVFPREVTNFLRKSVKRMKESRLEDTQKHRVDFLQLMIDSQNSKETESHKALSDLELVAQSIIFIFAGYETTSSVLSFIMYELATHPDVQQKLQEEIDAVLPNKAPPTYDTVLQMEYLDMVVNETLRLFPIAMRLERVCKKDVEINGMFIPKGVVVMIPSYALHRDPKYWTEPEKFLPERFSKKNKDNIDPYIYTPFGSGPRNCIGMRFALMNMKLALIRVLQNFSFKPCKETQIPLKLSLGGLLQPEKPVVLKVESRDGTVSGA

Compound	GI50 [1] [nM]	GI50 [2] [nM]	GI50 [3] [nM]	also measured
[2H]C([2H])([2H])Oc1cc(C(=O)Nc2cc3c(cc2Oc2cc(C)cc(C)c2)C(=O)N[C@@H](CC(=O)N(CC)CC)C(=O)N3)c(Br)c(OC([2H])([2H])[2H])c1OC([2H])([2H])[2H]	< 5	8.1	< 5	
[2H]C([2H])([2H])N(C(=O)C[C@H]1C(=O)Nc2cc(NC(=O)c3cc(OC)c(OC)c(OC)c3Br)c(Oc3cc(C)cc(C)c3)cc2C(=O)N1C)C([2H])([2H])[2H]	< 5	< 5	< 5	
[2H]C([2H])([2H])Oc1cc(C(=O)Nc2cc3c(cc2Oc2cc(C)cc(C)c2)C(=O)N[C@@H](CC(=O)N(C)OC)C(=O)N3)c(Br)c(OC([2H])([2H])[2H])c1OC([2H])([2H])[2H]	7.8	< 5	4.9	GI50 [4]: 90.3 nM; GI50 [5]: < 1 nM; GI50 [6]: < 1 nM; GI50 [7]: 251 nM
[2H]C([2H])([2H])Oc1cc(C(=O)Nc2cc3c(cc2Oc2cc(C)cc(C)c2)C(=O)N[C@@H](CC(=O)N(CC)CC)C(=O)N3)c(Cl)c(OC([2H])([2H])[2H])c1OC([2H])([2H])[2H]	5.4	39.7	14.9	
[2H]C([2H])([2H])Oc1cc(C(=O)Nc2cc3c(cc2Oc2cc(C)cc(C)c2)C(=O)N[C@@H](CC(=O)N(C([2H])([2H])C([2H])([2H])[2H])C([2H])([2H])C([2H])([2H])[2H])C(=O)N3)c(Br)c(OC([2H])([2H])[2H])c1OC([2H])([2H])[2H]	< 5	< 5	< 5	GI50 [4]: 14 nM; GI50 [5]: < 1 nM; GI50 [6]: < 1 nM; GI50 [7]: 64.1 nM
[2H]C([2H])([2H])Oc1c(OC)cc(C(=O)Nc2cc3c(cc2Oc2cc(C)cc(C)c2)C(=O)N[C@@H](CC(=O)N(CC)CC)C(=O)N3)c(Cl)c1OC	< 5	31.9	13.1	
[2H]C([2H])([2H])Oc1cc(C(=O)Nc2cc3c(cc2Oc2cc(C)cc(C)c2)C(=O)N[C@@H](CC(=O)N(C([2H])([2H])C([2H])([2H])[2H])C([2H])([2H])C([2H])([2H])[2H])C(=O)N3)c(Cl)c(OC([2H])([2H])[2H])c1OC([2H])([2H])[2H]	< 5	51.5	11.7	
[2H]c1c(C)c([2H])c(Oc2cc3c(cc2NC(=O)c2cc(OC)c(OC)c(OC)c2Cl)NC(=O)[C@H](CC(=O)N(CC)CC)NC3=O)c([2H])c1C	124	292	207	
CCN(CC)C(=O)C[C@H]1C(=O)Nc2cc(NC(=O)c3cc(OC)c(OC)c(OC)c3Br)c(Oc3cc(C)cc(C)c3)cc2C(=O)N1C	< 5	5.4	< 5	fraction unbound at 5 h, 5 µM [8]: < 0.02; half-life [9]: 16.6 min; GI50 [4]: 53.2 nM; half-life at 100 µM [10]: 13.8 min; Stability [11]: Stable; Drug metabolism [12]: Metabolite_Detected; half-life [13]: 11.6 min; half-life [14]: 11.4 min; Drug metabolism [15]: Metabolite_Detected; half-life [16]: 11.7 min; half-life at 100 µM [17]: 11 min; half-life [18]: 866 min; fraction unbound at 5 h, 5 µM [19]: < 0.02; GI50 [5]: 3.39 nM; Drug metabolism [20]: Metabolite_Detected; Stability [21]: Stable; GI50 [6]: < 1 nM; GI50 [7]: 109 nM
[2H]C([2H])([2H])C([2H])([2H])N(C(=O)C[C@@H]1NC(=O)c2cc(Oc3cc(C)cc(C)c3)c(NC(=O)c3cc(OC)c(OC)c(OC)c3Br)cc2NC1=O)C([2H])([2H])C([2H])([2H])[2H]	< 5	16.1	< 5	
[2H]c1c(Oc2cc3c(cc2NC(=O)c2cc(OC)c(OC)c(OC)c2Cl)NC(=O)[C@H](CC(=O)N(CC)CC)NC3=O)c([2H])c(C([2H])([2H])[2H])c([2H])c1C([2H])([2H])[2H]	< 5	27.7	19.1	
[2H]C([2H])([2H])c1cc(Oc2cc3c(cc2NC(=O)c2cc(OC)c(OC)c(OC)c2Cl)NC(=O)[C@H](CC(=O)N(CC)CC)NC3=O)cc(C([2H])([2H])[2H])c1	< 5	30.1	11.6	
[2H]C([2H])([2H])N1C(=O)c2cc(Oc3cc(C)cc(C)c3)c(NC(=O)c3cc(OC)c(OC)c(OC)c3Br)cc2NC(=O)[C@@H]1CC(=O)N(CC)CC	< 5	20.9	< 5	
COc1cc(C(=O)Nc2cc3c(cc2Oc2cc(C)cc(C)c2)C(=O)N[C@@H](CC(=O)N(C)C)C(=O)N3)c(Br)c(OC)c1OC	< 5	< 5	< 5	
[2H]C([2H])([2H])Oc1cc(C(=O)Nc2cc3c(cc2Oc2cc(C)cc(C)c2)C(=O)N(C)[C@@H](CC(=O)N(C([2H])([2H])[2H])C([2H])([2H])[2H])C(=O)N3)c(Br)c(OC([2H])([2H])[2H])c1OC([2H])([2H])[2H]	< 5	< 5	< 5	
[2H]C([2H])([2H])N(C(=O)C[C@@H]1NC(=O)c2cc(Oc3cc(C)cc(C)c3)c(NC(=O)c3cc(OC)c(OC)c(OC)c3Br)cc2NC1=O)C([2H])([2H])[2H]	7.1	< 5	< 5	GI50 [4]: 22.5 nM; GI50 [5]: 9.43 nM; GI50 [6]: 9.33 nM; GI50 [7]: 9.96 nM
[2H]C([2H])([2H])Oc1cc(C(=O)Nc2cc3c(cc2Oc2cc(C)cc(C)c2)C(=O)N(C)[C@@H](CC(=O)N(C([2H])([2H])C([2H])([2H])[2H])C([2H])([2H])C([2H])([2H])[2H])C(=O)N3)c(Br)c(OC([2H])([2H])[2H])c1OC([2H])([2H])[2H]	< 5	< 5	< 5	
COc1cc(C(=O)Nc2cc3c(cc2Oc2cc(C)cc(C)c2)C(=O)N(C)[C@@H](CC(=O)N(C)C)C(=O)N3)c(Br)c(OC)c1OC	< 5	< 5	< 5	
[2H]C([2H])([2H])Oc1cc(C(=O)Nc2cc3c(cc2Oc2cc(C)cc(C)c2)C(=O)N[C@@H](CC(=O)N(C)O)C(=O)N3)c(Br)c(OC([2H])([2H])[2H])c1OC([2H])([2H])[2H]	15.6	8.6	< 5	
[2H]C([2H])([2H])C([2H])([2H])N(C(=O)C[C@H]1C(=O)Nc2cc(NC(=O)c3cc(OC)c(OC)c(OC)c3Br)c(Oc3cc(C)cc(C)c3)cc2C(=O)N1C)C([2H])([2H])C([2H])([2H])[2H]	15.6	< 5	< 5	
[2H]C([2H])([2H])Oc1cc(C(=O)Nc2cc3c(cc2Oc2cc(C)cc(C)c2)C(=O)N(C)[C@@H](CC(=O)N(C)C)C(=O)N3)c(Br)c(OC([2H])([2H])[2H])c1OC([2H])([2H])[2H]	< 5	< 5	< 5	
[2H]C([2H])([2H])Oc1cc(C(=O)Nc2cc3c(cc2Oc2cc(C)cc(C)c2)C(=O)N[C@@H](CC(=O)N(C([2H])([2H])[2H])C([2H])([2H])[2H])C(=O)N3)c(Br)c(OC([2H])([2H])[2H])c1OC([2H])([2H])[2H]	< 5	< 5	6.1	
[2H]C([2H])([2H])Oc1cc(C(=O)Nc2cc3c(cc2Oc2cc(C)cc(C)c2)C(=O)N[C@@H](CC(=O)N(C)C)C(=O)N3)c(Br)c(OC([2H])([2H])[2H])c1OC([2H])([2H])[2H]	< 5	< 5	< 5	GI50 [4]: 0.75 nM; GI50 [5]: 0.79 nM; GI50 [6]: 0.23 nM; GI50 [7]: 25.3 nM
